According to patent US20220273659A1, “HETEROCYCLIC COMPOUNDS AS KINASE INHIBITORS” (NUVATION BIO INC., priority 2019, published 2022):

Experiments:
CDK4 = biological target: T1, CDK4 (Homo sapiens, UniProt P11802); experiment: In vitro kinase inhibition IC50, luminescence (ADP Glo), retinoblastoma substrate; format: biochemical; settings: read-out: CDK4/D1 IC50
T1 construct: purchased Invitrogen PR8064A
Protocol: (§1) IC50 values of compounds against CDK4 and CDK6 were determined by luminescence using retinoblastoma as substrate. Kinase assays were performed in kinase buffer (#PV6135, Invitrogen Life Technologies, Grand Island, N.Y.) where total reaction volume was […] in 96-well half area white plates (#3693, Costar). One microliter of 25×test compounds at specific concentrations (e.g., final concentration range: 0.1 nM-200 nM) was mixed with 10 μL of 2.5×kinase (5 nM, CDK4 #PR8064A and CDK6 #PR8422B, Invitrogen) solution and 14 μL of 4× mixed solution with retinoblastoma (1 μM, #12-439, EMD Millipore, Hayward, Calif.) and ATP (25 μM, #V7038, Promega, Madison, Wis.). The plates were covered and incubated for 2H at room temperature. At the end of incubation, 25 μL of stop solution—ADP Glo reagent (#V7002, Promega) was added. After incubation for 45 min at room temperature, 50 μL of detection reagent (##V7002, Promega) was added. Readings were taken at 15 min and 45 min incubation after detection reagent was added in a Synergy Neo Plate reader (BioTek, Winooski, Vt.) at single excitation of 340 nm and Dual emission at 495 nm and 520 nm respectively. The following equations were used in the CDK4 and CDK6 assay data analysis. Percent inhibition (100-% activity) was fitted to the “four-parameter logistic model” in XLfit for determination of IC50 values.
(§2) Percent conversion of enzyme=100−{(RLUNo Drug−No enzyme*100)/RLUNo drug+Enzyme} Equation 1:
(§3) Percent conversion at each data point=100−{(RLUAverage(Drug+enzyme)*100)!RLUNo drug+Enzyme} Equation 2:
(§4) Percent Inhibition=100*(% Conversioneach data point/% ConversionEnzyme) Equation 3: […]

CDK6 = biological target: T2, CDK6 (Homo sapiens, UniProt Q00534); experiment: as above; format: biochemical; settings: read-out: CDK6/D1 IC50
T2 construct: purchased Invitrogen PR8422B
T2 sequence (Q00534 whole entry): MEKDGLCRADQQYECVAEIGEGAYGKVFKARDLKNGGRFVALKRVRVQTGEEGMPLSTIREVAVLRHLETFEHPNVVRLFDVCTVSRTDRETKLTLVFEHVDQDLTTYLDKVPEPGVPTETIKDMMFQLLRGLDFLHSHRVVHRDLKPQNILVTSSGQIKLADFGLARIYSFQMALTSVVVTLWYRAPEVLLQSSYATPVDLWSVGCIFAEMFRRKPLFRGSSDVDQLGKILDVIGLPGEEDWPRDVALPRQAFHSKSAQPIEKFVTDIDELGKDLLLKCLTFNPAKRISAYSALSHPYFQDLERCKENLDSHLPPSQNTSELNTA
T2 sequence (P24385 whole entry partner): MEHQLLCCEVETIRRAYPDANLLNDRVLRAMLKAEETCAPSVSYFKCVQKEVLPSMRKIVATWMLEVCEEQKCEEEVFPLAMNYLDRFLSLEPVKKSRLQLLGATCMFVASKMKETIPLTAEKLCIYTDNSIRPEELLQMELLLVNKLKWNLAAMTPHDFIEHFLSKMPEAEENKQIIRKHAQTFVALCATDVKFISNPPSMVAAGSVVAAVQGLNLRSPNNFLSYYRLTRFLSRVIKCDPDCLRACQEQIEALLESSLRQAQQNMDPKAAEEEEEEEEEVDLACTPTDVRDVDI
Protocol: as §1, §2, §3, §4

FMS kinase = biological target: T3, FMS kinase (Homo sapiens, UniProt P07333); experiment: LanthaScreen Eu Kinase Binding Assay (ATP, fluorescent-PolyGT substrate); format: biochemical
T3 construct: purchased Invitrogen (Life Technologies)
T3 sequence (P07333 20-972): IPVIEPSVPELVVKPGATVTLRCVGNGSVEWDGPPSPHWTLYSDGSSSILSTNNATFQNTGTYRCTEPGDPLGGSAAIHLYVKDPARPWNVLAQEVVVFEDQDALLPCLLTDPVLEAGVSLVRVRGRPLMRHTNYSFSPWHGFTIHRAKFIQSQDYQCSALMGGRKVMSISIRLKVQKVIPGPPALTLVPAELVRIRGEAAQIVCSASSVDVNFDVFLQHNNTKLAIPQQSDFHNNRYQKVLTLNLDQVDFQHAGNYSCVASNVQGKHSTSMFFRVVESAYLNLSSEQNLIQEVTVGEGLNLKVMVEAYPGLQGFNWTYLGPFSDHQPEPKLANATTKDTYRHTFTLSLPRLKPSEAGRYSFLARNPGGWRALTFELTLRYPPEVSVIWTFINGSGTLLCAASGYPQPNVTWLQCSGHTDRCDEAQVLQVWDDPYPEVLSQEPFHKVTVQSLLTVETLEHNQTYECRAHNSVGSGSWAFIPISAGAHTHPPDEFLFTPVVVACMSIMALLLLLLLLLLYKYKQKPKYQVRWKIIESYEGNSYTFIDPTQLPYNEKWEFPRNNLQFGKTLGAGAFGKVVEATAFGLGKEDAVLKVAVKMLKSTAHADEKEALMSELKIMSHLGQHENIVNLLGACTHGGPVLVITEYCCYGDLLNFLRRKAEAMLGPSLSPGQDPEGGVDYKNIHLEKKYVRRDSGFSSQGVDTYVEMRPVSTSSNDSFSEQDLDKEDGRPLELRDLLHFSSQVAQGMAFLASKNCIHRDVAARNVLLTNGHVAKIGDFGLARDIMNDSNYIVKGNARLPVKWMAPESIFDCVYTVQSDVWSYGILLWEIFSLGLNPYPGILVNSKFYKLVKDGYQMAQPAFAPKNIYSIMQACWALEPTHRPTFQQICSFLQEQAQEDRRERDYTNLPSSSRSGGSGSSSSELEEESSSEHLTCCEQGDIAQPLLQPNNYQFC
Protocol: IC50 values of compounds against FMS kinase were determined by LanthaScreen™ Eu Kinase Binding Assay at Invitrogen (Life Technologies Grand Island, N.Y.) where total reaction volume was 10 μL in low-volume 384-well plates (#4511, Corning). Serially diluted compounds (3-fold) were incubated with kinase (1.25 nM) for 10 min, following which a mixture of ATP (10 μM) (#A1852, Sigma, St-Louis, Mo.) and fluorescent-PolyGT substrate (200 nM) (#PV3610, Invitrogen, Life Technologies Grand Island, N.Y.) was added and incubated in dark at room temperature for 1H. After 1H, 10 μL stop solution containing Terbium labeled antibody (4 nM) (#PV3529, Invitrogen, Life Technologies Grand Island, N.Y.) and EDTA (#E5134, Sigma, St-Louis, Mo.) (20 mM) in TR-FRET dilution buffer (#PV3574, Invitrogen, Life Technologies Grand Island, N.Y.) was added. Readings were taken in a Synergy Neo Plate reader (BioTek, Winooski) at single excitation of 340 nm and Dual emission at 495 nm and 520 nm respectively.
The following equations were used for LanthaScreen Eu Kinase Binding Assay Data Analysis. Percent inhibition (100-% activity) was fitted to the “four-parameter logistic model” in XLfit for determination of IC50 values.

[1] = test system: MCF-7 breast adenocarcinoma cells; experiment: Cancer cell proliferation assay, single agent (cell viability); format: cell-based; settings: Homo sapiens, MCF7, Table 4; Rb positive; treatment 144 Hr with medium change at 72 Hr; Cell Titer-Glo or resazurin
Protocol: (§5) The effects of test compounds were studied in three breast cancer cell lines of different subtype. The cancer cells (Table 3) were harvested during the logarithmic growth period and counted. Cell concentrations were adjusted to the appropriate number with respective medium and 90 μL cell suspensions were added to 96-well plates. After cells were seeded, the plates were shaken gently to distribute cells evenly and incubated at 37° C., 5% CO2 on day 1.
(§6) Cells were treated with test compounds at 7 to 9 concentrations within a desired concentration range (e.g. 1.1 nM-10 μM) on day 2 by series diluting the test compound stock solution (10 mM in DMSO) with culture medium. Treatment duration was 24 Hr for BT-549 cells and 144 Hr (with a medium change at 72 Hr) for MCF-7 and DU4475 cells. Cell viability was assessed by Cell Titer-Glo® as recommended by Promega (Cat. No.: G7572), or by resazurin assay (Sigma Aldrich, Cat. No.: R7017) post treatment.
(§7) Cell viability data were plotted using GraphPad Prism (GraphPad Software, Inc., San Diego, Calif.). In addition, a nonlinear regression model with a sigmoidal dose response and variable slope within GraphPad Prism was used to calculate the IC50 value of individual test compounds.

[2] = test system: DU4475 breast carcinoma cells; experiment: as above; format: cell-based; settings: Homo sapiens, DU-4475; Table 4; Rb negative; treatment 144 Hr with medium change at 72 Hr; Cell Titer-Glo or resazurin
Protocol: as §5, §6, §7

PI3Kδ kinase = biological target: T4, PI3Kδ kinase (Homo sapiens, UniProt O00329); experiment: PI3Kδ kinase assay (ADP-Glo, Reaction Biology); format: biochemical
T4 construct: purchased Reaction Biology Corporation (assay service)
T4 sequence (O00329 whole entry): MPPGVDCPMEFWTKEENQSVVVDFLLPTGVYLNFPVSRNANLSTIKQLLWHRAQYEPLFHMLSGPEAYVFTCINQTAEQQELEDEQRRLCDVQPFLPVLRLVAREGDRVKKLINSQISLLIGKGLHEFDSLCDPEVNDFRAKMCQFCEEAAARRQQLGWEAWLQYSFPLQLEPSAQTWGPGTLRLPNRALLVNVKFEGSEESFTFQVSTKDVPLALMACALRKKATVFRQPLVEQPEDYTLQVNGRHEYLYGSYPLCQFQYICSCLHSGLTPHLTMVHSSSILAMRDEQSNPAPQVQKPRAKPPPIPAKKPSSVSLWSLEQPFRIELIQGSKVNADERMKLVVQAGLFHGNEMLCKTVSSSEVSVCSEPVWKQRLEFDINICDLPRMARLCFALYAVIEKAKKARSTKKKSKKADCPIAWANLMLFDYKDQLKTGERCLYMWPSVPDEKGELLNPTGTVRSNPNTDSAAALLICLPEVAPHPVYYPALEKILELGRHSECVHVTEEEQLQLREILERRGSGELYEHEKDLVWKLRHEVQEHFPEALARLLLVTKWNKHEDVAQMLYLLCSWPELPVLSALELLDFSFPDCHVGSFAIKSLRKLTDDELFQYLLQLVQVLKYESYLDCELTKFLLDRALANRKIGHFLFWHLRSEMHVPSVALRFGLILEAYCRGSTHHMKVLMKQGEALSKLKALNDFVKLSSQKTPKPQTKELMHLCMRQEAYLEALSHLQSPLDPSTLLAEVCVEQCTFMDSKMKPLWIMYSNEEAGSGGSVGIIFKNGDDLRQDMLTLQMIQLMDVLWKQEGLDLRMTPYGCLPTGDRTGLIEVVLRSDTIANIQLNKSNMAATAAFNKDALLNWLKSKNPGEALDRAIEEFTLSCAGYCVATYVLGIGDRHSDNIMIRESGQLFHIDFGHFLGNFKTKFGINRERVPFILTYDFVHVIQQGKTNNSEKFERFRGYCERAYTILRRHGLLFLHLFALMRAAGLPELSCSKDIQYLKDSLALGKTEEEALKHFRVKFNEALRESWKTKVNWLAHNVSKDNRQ
T4 sequence (P27986 whole entry partner): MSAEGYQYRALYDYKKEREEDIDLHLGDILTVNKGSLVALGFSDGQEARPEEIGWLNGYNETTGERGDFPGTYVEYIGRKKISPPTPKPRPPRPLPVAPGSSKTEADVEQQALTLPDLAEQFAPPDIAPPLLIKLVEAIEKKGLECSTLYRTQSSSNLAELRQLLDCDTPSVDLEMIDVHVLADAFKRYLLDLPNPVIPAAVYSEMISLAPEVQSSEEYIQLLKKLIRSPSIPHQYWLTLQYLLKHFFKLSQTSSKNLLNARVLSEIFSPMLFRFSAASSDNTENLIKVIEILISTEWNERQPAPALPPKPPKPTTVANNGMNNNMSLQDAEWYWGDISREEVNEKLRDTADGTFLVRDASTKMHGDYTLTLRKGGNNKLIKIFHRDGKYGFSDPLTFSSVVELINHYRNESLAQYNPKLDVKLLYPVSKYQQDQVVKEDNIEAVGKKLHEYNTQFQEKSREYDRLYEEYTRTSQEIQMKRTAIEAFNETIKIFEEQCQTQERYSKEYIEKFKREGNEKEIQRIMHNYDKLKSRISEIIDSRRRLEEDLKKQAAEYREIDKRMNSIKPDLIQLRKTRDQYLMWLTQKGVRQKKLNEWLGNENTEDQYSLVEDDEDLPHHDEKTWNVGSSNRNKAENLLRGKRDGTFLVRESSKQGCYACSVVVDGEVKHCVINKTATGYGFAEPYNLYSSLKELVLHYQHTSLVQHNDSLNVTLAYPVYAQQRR
Protocol: IC50 values of compounds against the PI3Kδ kinase were determined by an assay performed by Reaction Biology Corporation (Malvern, Pa.). Briefly, this assay was conducted in buffer (Tris-HCl 40 mM (pH7.5), Orthovanadate 3 mM, MgCl2 20 mM, DTT 2 mM, CHAPS 0.05%, DMSO 1%). PI3Kδ kinase was added to the reaction solution and mixed gently. The test compounds in 100% DMSO (at specific solutions) were mixed with the kinase reaction mixture to achieve the final compounds at pre-defined concentrations (e.g., range −0.5 nM to 100 μM) by Acoustic technology (Echo550; nanoliter range). After incubating for 10 min at room temp, ATP was added into the reaction mixture to initiate the reaction followed by a 30-min incubation at 30° C. After quenching the reaction with ADP-Glo reagent, the plates were incubated for 40 min. The Detection Mixture was added, and the plate was incubated for an additional 30 min. At the end of incubation, luminescence was measured. For data analysis, the luminescence was converted into μM ADP production based on ADP standard curves. The nonlinear regression to obtain the standard curve and IC50 values was performed using GraphPad Prism (GraphPad Software, Inc., San Diego, Calif.).

T1 sequence (P11802 whole entry): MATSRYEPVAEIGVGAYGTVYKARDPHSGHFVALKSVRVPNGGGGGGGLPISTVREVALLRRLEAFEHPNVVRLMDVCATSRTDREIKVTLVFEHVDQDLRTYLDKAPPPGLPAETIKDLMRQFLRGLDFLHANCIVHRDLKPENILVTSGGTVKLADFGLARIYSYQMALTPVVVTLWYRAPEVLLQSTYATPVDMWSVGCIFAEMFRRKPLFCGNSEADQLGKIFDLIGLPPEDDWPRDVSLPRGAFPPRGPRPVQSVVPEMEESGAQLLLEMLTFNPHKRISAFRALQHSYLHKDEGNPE
T1 sequence (P24385 whole entry partner): as the sequence (P24385 whole entry partner) above

SMILES | IC50 (CDK4) | IC50 (CDK6) | IC50 (FMS kinase) | IC50 [1] | IC50 [2] | IC50 (PI3Kδ kinase)
N#Cc1cc2cnc(Nc3ccc4c(c3)NC(=O)C4)nc2n(C2CCCC2)c1=O [Compound No. 19, 8-cyclopentyl-7-oxo-2-((2-oxoindolin-6-yl)amino)-7,8-dihydropyrido[2,3-d]pyrimidine-6-carbonitrile] | 35 nM | 38 nM | < 1 nM | 2360 nM | – | –
CN1CCN(S(=O)(=O)c2cccc(Nc3ncc4cc(C#N)c(=O)n(C5CCCC5)c4n3)c2)CC1 [Compound No. 17, 8-cyclopentyl-2-((3-((4-methylpiperazin-1-yl)sulfonyl)phenyl)amino)-7-oxo-7,8-dihydropyrido[2,3-d]pyrimidine-6-carbonitrile] | > 200 nM | > 200 nM | 53 nM | 3230 nM | – | –
N#Cc1cc2cnc(Nc3ccc(N4CCNCC4)cc3F)nc2n(C2CCCC2)c1=O [Compound No. 26, 8-cyclopentyl-2-((2-fluoro-4-(piperazin-1-yl)phenyl)amino)-7-oxo-7,8-dihydropyrido[2,3-d]pyrimidine-6-carbonitrile] | 42 nM | 6 nM | 6 nM | 533 nM | – | –
N#Cc1cc2cnc(Nc3cccc(S(=O)(=O)N4CCOCC4)c3)nc2n(C2CCCC2)c1=O [Compound No. 20] | > 200 nM | > 200 nM | 99 nM | 1050 nM | – | –
N#Cc1cc2cnc(Nc3cnn(C4CCC(O)CC4)c3)nc2n(C2CCCC2)c1=O (stereo not shown) [Compound No. 51, 8-cyclopentyl-2-((1-(4-hydroxycyclohexyl)-1H-pyrazol-4-yl)amino)-7-oxo-7,8-dihydropyrido[2,3-d]pyrimidine-6-carbonitrile] | 91 nM | 42 nM | 1 nM | 570 nM | – | –
CN1CCN(C(=O)c2cccc(Nc3ncc4cc(C#N)c(=O)n(C5CCCC5)c4n3)c2)CC1 [Compound No. 16, 8-cyclopentyl-2-((3-(4-methylpiperazine-1-carbonyl)phenyl)amino)-7-oxo-7,8-dihydropyrido[2,3-d]pyrimidine-6-carbonitrile] | > 200 nM | > 200 nM | 7 nM | 6020 nM | – | –
N#Cc1cc2cnc(Nc3cc(F)c(N4CCNCC4)c(F)c3)nc2n(C2CCCC2)c1=O [Compound No. 27, 8-cyclopentyl-2-((3,5-difluoro-4-(piperazin-1-yl)phenyl)amino)-7-oxo-7,8-dihydropyrido[2,3-d]pyrimidine-6-carbonitrile] | 18 nM | 3.5 nM | 3.5 nM | 138 nM | – | –
C[C@H]1CC[C@H](n2c(=O)c(C#N)cc3cnc(Nc4ccc5c(c4)C(=O)NCC5)nc32)CC1 [Compound No. 7, 8-((1r,4r)-4-methylcyclohexyl)-7-oxo-2-((1-oxo-1,2,3,4-tetrahydroisoquinolin-7-yl)amino)-7,8-dihydropyrido[2,3-d]pyrimidine-6-carbonitrile] | – | – | 8 nM | – | – | –
CC1CCN(c2ccc(Nc3ncc4cc(C#N)c(=O)n(C5CCCC5)c4n3)cc2)CC1 [Compound No. 25, 8-cyclopentyl-2-((4-(4-methylpiperidin-1-yl)phenyl)amino)-7-oxo-7,8-dihydropyrido[2,3-d]pyrimidine-6-carbonitrile] | > 200 nM | 38 nM | 13 nM | > 30000 nM | – | –
N#Cc1cc2cnc(Nc3cccc(S(=O)(=O)N4CCC(O)CC4)c3)nc2n(C2CCCC2)c1=O [Compound No. 18, 8-cyclopentyl-2-((3-((4-hydroxypiperidin-1-yl)sulfonyl)phenyl)amino)-7-oxo-7,8-dihydropyrido[2,3-d]pyrimidine-6-carbonitrile] | > 200 nM | > 200 nM | 74 nM | 1420 nM | – | –
N#Cc1cc2cnc(Nc3ccc4c(c3)C(=O)NC4)nc2n(C2CCCC2)c1=O [Compound No. 24, 8-cyclopentyl-7-oxo-2-((3-oxoisoindolin-5-yl)amino)-7,8-dihydropyrido[2,3-d]pyrimidine-6-carbonitrile] | > 200 nM | 35 nM | 5 nM | > 30000 nM | – | –
CC1CN(c2ccc(Nc3ncc4cc(C#N)c(=O)n(C5CCCC5)c4n3)nc2)CCN1 (stereo not shown) [Compound No. 23, 8-cyclopentyl-2-((5-(3-methylpiperazin-1-yl)pyridin-2-yl)amino)-7-oxo-7,8-dihydropyrido[2,3-d]pyrimidine-6-carbonitrile] | 70.5 nM | 7 nM | 53 nM | 750 nM | 12400 nM | –
CN1CCn2nc(Nc3ncc4cc(C#N)c(=O)n(C5CCCC5)c4n3)cc2C1 [Compound No. 52, 8-cyclopentyl-2-((5-methyl-4,5,6,7-tetrahydropyrazolo[1,5-a]pyrazin-2-yl)amino)-7-oxo-7,8-dihydropyrido[2,3-d]pyrimidine-6-carbonitrile] | 39 nM | 13 nM | 6.5 nM | 6310 nM | – | –
CN(C)CCN1CCc2ccc(Nc3ncc4cc(C#N)c(=O)n(C5CCCC5)c4n3)cc2C1 [Compound No. 62, 8-cyclopentyl-2-((2-(2-(dimethylamino)ethyl)-1,2,3,4-tetrahydroisoquinolin-7-yl)amino)-7-oxo-7,8-dihydropyrido[2,3-d]pyrimidine-6-carbonitrile] | 14 nM | 4 nM | – | 594 nM | 1260 nM | –
CC1(C)CNCc2cc(Nc3ncc4cc(C#N)c(=O)n(C5CCCC5)c4n3)ccc21 [Compound No. 8, 8-cyclopentyl-2-((4,4-dimethyl-1,2,3,4-tetrahydroisoquinolin-7-yl)amino)-7-oxo-7,8-dihydropyrido[2,3-d]pyrimidine-6-carbonitrile] | – | – | – | – | – | 2460 nM
